The data set in a line: physchem. The settings on record: octan-1-ol/water, pH 7.4, LogD7.4.

SMILES strings stand for the structures.

Turning to `CC(C)C(NC(=O)Cn1c(-c2ccccc2)ccc(NS(N)(=O)=O)c1=O)C(=O)C(F)(F)F` (centres undefined), the pH-dependent lipophilicity (logD) was 1.17.
Under `CC(C)C(NC(=O)Cn1c(-c2ccccc2)ccc(NC(=O)NCc2cc[n+]([O-])cc2)c1=O)C(=O)C(F)(F)F` (centres undefined) stands 1.13; under `O=c1[nH]n(C(c2ccccc2)c2ccncc2)c(=O)c2c(O)c3ccc(Cl)cc3nc12` (centres undefined), 1.1; under `O=C([C@@H](O)CO)N1CC=C(c2ccc(N3C[C@H](COc4ccon4)OC3=O)cc2F)CC1`, 1.09.
Under `Cn1c(-c2ccc(O)nc2)nc2ccccc21` stands 1.2; under `CCn1c(=O)c2c(=O)cc(O)oc2c2ccccc21`, 1.13; under `NC(=O)c1cccnc1Oc1ccccc1`, 1.13.
The same measure for `Nc1n[nH]c(Nc2ccccc2)n1`: 1.06; for `Cc1cccc(C(N)=O)c1NC(=O)c1ccccc1`: 1.09.
`O=S(=O)(Nc1nnc(-c2ccccc2)s1)c1ccc(Cl)cc1` came in with a logD of 1.14.
The same measure for `CCOC(=O)c1cc2ccc(O)cc2oc1=O`: 1.2; for `Nc1[nH]ncc1S(=O)(=O)c1ccccc1`: 1.1; for `COc1ccc(Nc2ccccc2C(=O)O)cc1`: 1.2.
In the case of `CC1CN(C(=O)c2nnc3c(-c4ncccn4)cccc3c2N)C1`, the logD worked out at 1.21.
The same measure for `Cc1cc(CN2Cc3cccnc3CC2C(=O)Nc2ccc(Cl)cc2Cl)ccc1OCC(=O)O` (centres undefined): 1.15; for `Cc1nc(CS(=O)(=O)c2ccccc2)cc(N2CCOCC2)n1`: 1.07.
The same measure for `CN(C)C(=O)N1CCC(C(=O)NCc2cccs2)CC1`: 1.1.
The same measure for `CCNCc1cncc(-c2ccc(F)cc2OC)n1`: 1.18; for `CC(C)(CS(=O)(=O)N1CCN(c2ccc(F)cc2)CC1)N(O)C=O`: 1.07.
As for `C[C@H]1O[C@@H](n2cnc3c(N)nc(Oc4ccccc4)nc32)[C@H](O)[C@@H]1O`, the logD came out at 1.05.
The compound `O=c1[nH]c2c(O)ccc([C@@H](O)CNCCc3ccc(CNCCc4ccccc4)cc3)c2s1` showed a logD of 1.11.
The same measure for `Nc1ncnc2sccc12`: 1.19.
The same measure for `NC(=O)c1cc2ccccc2nc1N`: 1.07; for `CS(=O)(=O)c1ccccc1C(=O)NCC(O)CNC1CCN(Cc2ccc(Cl)c(Cl)c2)CC1` (centres undefined): 1.21; for `O=c1c2ccc(Cl)cc2[nH]c2c(O)nn(Cc3ccsc3)c(=O)c12`: 1.11.
In turn, `Cc1ccsc1Cn1[nH]c(=O)c2[nH]c3cc(Cl)ccc3c(=O)c2c1=O` showed a logD of 1.15.
As for `CCOc1ccccc1-c1ccc(-c2nc3ccc(F)cc3c(C(=O)O)c2C)cc1`, the logD was 1.18.
Under `Cn1sc(NC(=O)c2ccccc2)nc1=O` stands 1.13; under `COc1cc2c(Nc3ccc(Cl)cc3F)ncnc2cc1OCC1CCNCC1`, 1.1; under `O=S(=O)(Nc1nccs1)c1cc(Cl)ccc1Cl`, 1.14.
Under `CC(C)C(NC(=O)Cn1c(-c2ccccc2)ccc(NC(=O)Cc2ccccc2C(=O)O)c1=O)C(=O)C(F)(F)F` (centres undefined) stands 1.14.
For `CC(C)C(NC(=O)Cn1c(-c2cccc(C(=O)O)c2)ccc(NC(=O)OCc2ccccc2)c1=O)C(=O)C(F)(F)F` (centres undefined), the logD turned out to be 1.2.
`CC(C)C[C@H](N)c1nnc(S(=O)(=O)Cc2ccc(F)cc2)o1` registered a logD of 1.11.
For `NC(=O)Nc1sc(-c2ccc(OCCN3CCCCC3)cc2)cc1C(N)=O`, the logD is 1.2.
Compound `CSc1nc(C(N)=O)c(N)s1` yielded a pH-dependent lipophilicity (logD) of 1.21.
Turning to `CN[C@H]1CCN(C(=O)c2ccc(Nc3nccc(-c4cnc(C)n4C(C)C)n3)cc2)C1`, the pH-dependent lipophilicity (logD) was determined as 1.22.
Under `COc1cc2c(Nc3ccc(F)c(Cl)c3)c(C(N)=O)cnc2cc1OCCCN1CCN(C)CC1` stands 1.2; under `Cc1ccc(-c2ccc(S(=O)(=O)N3CCC[C@H]3C(=O)N3CC[C@@H](N)C3)cc2F)o1`, 1.2.
`Nc1nc(SCc2ccccc2)nc2c1ncn2[C@@H]1O[C@H](CO)[C@@H](O)[C@H]1O` came in with a logD of 1.24.

In general, logD refers to lipophilicity at a set pH, counting ionised and neutral species. A high value points to higher lipophilicity.
